Where “and” joins values, the source holds several entries; their conditions need not be identical. Equal values may be shown once.
Tested on: not listed separately
Assay: In vitro filtering parameters of O/W sunscreen formulation containing 3% compound (modified Diffey-Robson, PMMA plates)
Settings: 3% in formulation, before irradiation
Text: All synthesized compounds were formulated at 3% and their photoprotective efficacy, determined by spectrophotometric measurements using the modified Diffey-Robson method, was compared with that of the lead compound PBSA (used at 3% in the same formulation) and using the base without active as a control (Table 2).
The synthesized compounds were incorporated at a concentration of 3% in a typical oil-in-water sunscreen formulation, to evaluate the filtering parameters, and have the following ingredient composition:
INCI (International Nomenclature Cosmetic Ingredients): aqua, glycerin, Euxyl PE 9010, xanthan gum, Tribehenin PEG-20 Esters, cetearyl alcohol, dicaprylyl carbonate, PPG-26-Buteth-26 (and) PEG-40 Hydrogenated Castor Oil (and) water, C12-C15 Alkyl Benzoate, and Sodium hydroxide (sol. 10%).
As previously reported the protocol indicates to spread 32.5 mg of each formulation on 25 cm^2 PMMA plates with the fingers. Each formulation was tested in triplicate, and five measurements were recorded for each dish, following a 15–30 min incubation in the dark at room temperature. UV transmittance data was recorded using a UV-VIS spectrophotometer in the range 290–400 nm. The blank plate, SPF, UVA-PF and critical wavelength were obtained by SPF Calculator software (version 2.1), Shimadzu, Milan, Italy).

In order of rising SPF:
1. O=C(N/N=C/c1ccc(O)cc1)c1nc2ccccc2s1 [BZTidr2, (E)-N′-(4-hydroxybenzylidene)benzo[d]thiazole-2-carbohydrazide]  1.85
2. COc1ccc(/C=C/C(=O)Nc2nc3ccccc3s2)cc1O [BZTcin5, (E)-N-(benzo[d]thiazol-2-yl)-3-(3-hydroxy-4-methoxyphenyl)acrylamide]  3.84
3. O=C(/C=C/c1ccc(O)c(O)c1)Nc1nc2ccccc2s1 [BZTcin4, (E)-N-(benzo[d]thiazol-2-yl)-3-(3,4-dihydroxyphenyl)acrylamide]  9.70
4. O=C(/C=C/c1ccc(O)cc1)Nc1nc2ccccc2s1 [BZTcin2, (E)-N-(benzo[d]thiazol-2-yl)-3-(4-hydroxyphenyl)acrylamide]  12.26

In order of falling UVA/UVB:
1. O=C(/C=C/c1ccc(O)cc1)Nc1nc2ccccc2s1 [BZTcin2, (E)-N-(benzo[d]thiazol-2-yl)-3-(4-hydroxyphenyl)acrylamide]  1.49
2. O=C(/C=C/c1ccc(O)c(O)c1)Nc1nc2ccccc2s1 [BZTcin4, (E)-N-(benzo[d]thiazol-2-yl)-3-(3,4-dihydroxyphenyl)acrylamide]  1.39
3. COc1ccc(/C=C/C(=O)Nc2nc3ccccc3s2)cc1O [BZTcin5, (E)-N-(benzo[d]thiazol-2-yl)-3-(3-hydroxy-4-methoxyphenyl)acrylamide]  1.11
4. O=C(N/N=C/c1ccc(O)cc1)c1nc2ccccc2s1 [BZTidr2, (E)-N′-(4-hydroxybenzylidene)benzo[d]thiazole-2-carbohydrazide]  1.09

In order of falling UVAPF0:
1. O=C(/C=C/c1ccc(O)cc1)Nc1nc2ccccc2s1 [BZTcin2, (E)-N-(benzo[d]thiazol-2-yl)-3-(4-hydroxyphenyl)acrylamide]  11.79
2. O=C(/C=C/c1ccc(O)c(O)c1)Nc1nc2ccccc2s1 [BZTcin4, (E)-N-(benzo[d]thiazol-2-yl)-3-(3,4-dihydroxyphenyl)acrylamide]  11.40
3. COc1ccc(/C=C/C(=O)Nc2nc3ccccc3s2)cc1O [BZTcin5, (E)-N-(benzo[d]thiazol-2-yl)-3-(3-hydroxy-4-methoxyphenyl)acrylamide]  3.61
4. O=C(N/N=C/c1ccc(O)cc1)c1nc2ccccc2s1 [BZTidr2, (E)-N′-(4-hydroxybenzylidene)benzo[d]thiazole-2-carbohydrazide]  1.96

In order of rising λc:
1. COc1ccc(/C=C/C(=O)Nc2nc3ccccc3s2)cc1O [BZTcin5, (E)-N-(benzo[d]thiazol-2-yl)-3-(3-hydroxy-4-methoxyphenyl)acrylamide]  378 nm
2. O=C(/C=C/c1ccc(O)cc1)Nc1nc2ccccc2s1 [BZTcin2, (E)-N-(benzo[d]thiazol-2-yl)-3-(4-hydroxyphenyl)acrylamide]  380 nm
3. O=C(/C=C/c1ccc(O)c(O)c1)Nc1nc2ccccc2s1 [BZTcin4, (E)-N-(benzo[d]thiazol-2-yl)-3-(3,4-dihydroxyphenyl)acrylamide]  380 nm
4. O=C(N/N=C/c1ccc(O)cc1)c1nc2ccccc2s1 [BZTidr2, (E)-N′-(4-hydroxybenzylidene)benzo[d]thiazole-2-carbohydrazide]  386 nm

Tested on: melanoma Colo-38 cells
Assay: Cell growth inhibition assay, Colo-38
Format: cell-based, human
Settings: Homo sapiens; 24 h incubation, cell count
Description: All synthesized compounds were tested in order to evaluate their in vitro antiproliferative activity. The human melanoma Colo-38 cell line was selected as a tumor skin model, while the immortalized human HaCaT keratinocytes were chosen as a control for the evaluation of the cytotoxicity towards non-cancerous cells and of the selectivity towards tumor cell lines. […] The selectivity index (SI) was also calculated and is the ratio between the IC50 of a given compound towards the non-cancerous cell line and the IC50 of the same compound towards the tumor cell line.
Cell growth inhibition assays were carried out using human melanoma Colo-38 cells and skin HaCat keratinocytes cells. Human melanoma Colo-38 cells were kindly provided by Dr. Patrizio Giacomini (Laboratory of Immunology, Regina Elena Institute, Rome, Italy). HaCat cells were kindly provided by Istituto Zooprofilattico Sperimentale della Lombardia e dell’Emilia Romagna, Brescia, Italy. Cell lines were seeded using concentrations of 40,000 cells/mL and 25,000 cells/mL, respectively. Colo-38 cells were maintained in RPMI 1640, supplemented with 10% fetal bovine serum (FBS), penicillin (100 Units mL^−1), and streptomycin (100 µg mL^−1). HaCat cells were maintained in DMEM, supplemented with 10% fetal bovine serum (FBS), penicillin (100 Units mL^−1), streptomycin (100 µg mL^−1) and glutamine (2 mM); the incubation was performed at 37 °C in a 5% CO2 atmosphere. Tested compounds were dissolved in MeOH/DMSO (1:1) to obtain 50 mM stock solutions and diluted before cell treatment in MeOH 100%. The tested compounds were added at serial dilutions to the cell cultures (from 0.1 to 100 µM) and incubated for 24 h further. Cells were then harvested, suspended in physiological solution, and counted with a Z2 Coulter Counter (Coulter Electronics, Hialeah, FL, USA). The cell number/mL and the IC50 values were determined when untreated cells were in the log phase of cell growth. Cells treated with vehicles and untreated cells were placed in each plate.

In order of rising IC50:
1. O=C(/C=C/c1ccc(O)c(O)c1)Nc1nc2ccccc2s1 [BZTcin4, (E)-N-(benzo[d]thiazol-2-yl)-3-(3,4-dihydroxyphenyl)acrylamide]  8.31 ± 0.76 µM
2. COc1ccc(/C=C/C(=O)Nc2nc3ccccc3s2)cc1O [BZTcin5, (E)-N-(benzo[d]thiazol-2-yl)-3-(3-hydroxy-4-methoxyphenyl)acrylamide]  10 ± 6.12 µM
3. O=C(/C=C/c1ccc(O)cc1)Nc1nc2ccccc2s1 [BZTcin2, (E)-N-(benzo[d]thiazol-2-yl)-3-(4-hydroxyphenyl)acrylamide]  35.2 ± 5.52 µM
4. O=C(N/N=C/c1ccc(O)cc1)c1nc2ccccc2s1 [BZTidr2, (E)-N′-(4-hydroxybenzylidene)benzo[d]thiazole-2-carbohydrazide]  92.6 ± 1.68 µM

Same assay, conditions: IC50 HaCat / IC50 Colo-38

In order of rising “SI Colo-38 (selectivity index)” value:
1. O=C(/C=C/c1ccc(O)c(O)c1)Nc1nc2ccccc2s1 [BZTcin4, (E)-N-(benzo[d]thiazol-2-yl)-3-(3,4-dihydroxyphenyl)acrylamide]  4.59
2. COc1ccc(/C=C/C(=O)Nc2nc3ccccc3s2)cc1O [BZTcin5, (E)-N-(benzo[d]thiazol-2-yl)-3-(3-hydroxy-4-methoxyphenyl)acrylamide]  8.33

Tested on: not listed separately
Assay: Photostability study of 3% formulation (post-irradiation filtering parameters)
Settings: 3% in formulation, SPF after/before irradiation × 100
Text: To outline the efficacy and safety profile of a sunscreen formulation, it is essential to provide data relating to photostability. It is possible to provide photodegradation data by recording, pre- and post-irradiation, the transmittance of PMMA plates with finger-coat formulations subjected to a dose of UVA capable of causing erythema, according to the criteria of Garoli et al.. By means of Equations (2) and (3) it was possible to evaluate the residual percentage of SPF in vitro and of UVA-PF for all the prepared formulations. Of greatest interest are the values obtained for the derivatives BZTcin2 and BZTcin4.
To determine the photostability, the previously reported method was adopted, which consists in preparing each plate as mentioned above and subjecting it to solar irradiation quantified as the minimum dose of UVA equivalent to an effective radiant exposure of erythema. The protocol stipulates that, before and after exposure to sunlight, the transmission of the sun protection layer in the range of 290–400 nm is recorded.
Using Equations (2) and (3) below, the residual percentage of SPF in vitro (% SPFeff.) and UVA-PF (% UVA-PFeff.) have been obtained, which, if greater than or equal to 80, can classify a filter as photostable. %SPFeff. = in vitro SPFafter/in vitro SPFbefore × 100(2) %UVA − PFeff. = UVA − PFafter/UVA − PFbefore × 100(3)

In order of rising “% SPFeff (residual percentage of SPF in vitro)” value:
1. O=C(/C=C/c1ccc(O)c(O)c1)Nc1nc2ccccc2s1 [BZTcin4, (E)-N-(benzo[d]thiazol-2-yl)-3-(3,4-dihydroxyphenyl)acrylamide]  86.91%
2. O=C(/C=C/c1ccc(O)cc1)Nc1nc2ccccc2s1 [BZTcin2, (E)-N-(benzo[d]thiazol-2-yl)-3-(4-hydroxyphenyl)acrylamide]  96.00%

Same assay, conditions: 3% in formulation, UVA-PF after/before irradiation × 100

In order of falling “% UVA-PFeff (residual percentage of UVA-PF)” value:
1. O=C(/C=C/c1ccc(O)c(O)c1)Nc1nc2ccccc2s1 [BZTcin4, (E)-N-(benzo[d]thiazol-2-yl)-3-(3,4-dihydroxyphenyl)acrylamide]  93.25%
2. O=C(/C=C/c1ccc(O)cc1)Nc1nc2ccccc2s1 [BZTcin2, (E)-N-(benzo[d]thiazol-2-yl)-3-(4-hydroxyphenyl)acrylamide]  85.50%

Same assay, conditions: 3% in formulation, post irradiation

In order of rising SPF:
1. O=C(N/N=C/c1ccc(O)cc1)c1nc2ccccc2s1 [BZTidr2, (E)-N′-(4-hydroxybenzylidene)benzo[d]thiazole-2-carbohydrazide]  1.85
2. COc1ccc(/C=C/C(=O)Nc2nc3ccccc3s2)cc1O [BZTcin5, (E)-N-(benzo[d]thiazol-2-yl)-3-(3-hydroxy-4-methoxyphenyl)acrylamide]  3.51
3. O=C(/C=C/c1ccc(O)c(O)c1)Nc1nc2ccccc2s1 [BZTcin4, (E)-N-(benzo[d]thiazol-2-yl)-3-(3,4-dihydroxyphenyl)acrylamide]  8.43
4. O=C(/C=C/c1ccc(O)cc1)Nc1nc2ccccc2s1 [BZTcin2, (E)-N-(benzo[d]thiazol-2-yl)-3-(4-hydroxyphenyl)acrylamide]  11.77

In order of rising UVA/UVB:
1. O=C(N/N=C/c1ccc(O)cc1)c1nc2ccccc2s1 [BZTidr2, (E)-N′-(4-hydroxybenzylidene)benzo[d]thiazole-2-carbohydrazide]  1.09
2. COc1ccc(/C=C/C(=O)Nc2nc3ccccc3s2)cc1O [BZTcin5, (E)-N-(benzo[d]thiazol-2-yl)-3-(3-hydroxy-4-methoxyphenyl)acrylamide]  1.11
3. O=C(/C=C/c1ccc(O)c(O)c1)Nc1nc2ccccc2s1 [BZTcin4, (E)-N-(benzo[d]thiazol-2-yl)-3-(3,4-dihydroxyphenyl)acrylamide]  1.39
4. O=C(/C=C/c1ccc(O)cc1)Nc1nc2ccccc2s1 [BZTcin2, (E)-N-(benzo[d]thiazol-2-yl)-3-(4-hydroxyphenyl)acrylamide]  1.49

In order of rising UVAPF:
1. O=C(N/N=C/c1ccc(O)cc1)c1nc2ccccc2s1 [BZTidr2, (E)-N′-(4-hydroxybenzylidene)benzo[d]thiazole-2-carbohydrazide]  1.96
2. COc1ccc(/C=C/C(=O)Nc2nc3ccccc3s2)cc1O [BZTcin5, (E)-N-(benzo[d]thiazol-2-yl)-3-(3-hydroxy-4-methoxyphenyl)acrylamide]  3.32
3. O=C(/C=C/c1ccc(O)cc1)Nc1nc2ccccc2s1 [BZTcin2, (E)-N-(benzo[d]thiazol-2-yl)-3-(4-hydroxyphenyl)acrylamide]  10.08
4. O=C(/C=C/c1ccc(O)c(O)c1)Nc1nc2ccccc2s1 [BZTcin4, (E)-N-(benzo[d]thiazol-2-yl)-3-(3,4-dihydroxyphenyl)acrylamide]  10.63

In order of falling λc:
1. O=C(N/N=C/c1ccc(O)cc1)c1nc2ccccc2s1 [BZTidr2, (E)-N′-(4-hydroxybenzylidene)benzo[d]thiazole-2-carbohydrazide]  386 nm
2. O=C(/C=C/c1ccc(O)c(O)c1)Nc1nc2ccccc2s1 [BZTcin4, (E)-N-(benzo[d]thiazol-2-yl)-3-(3,4-dihydroxyphenyl)acrylamide]  380 nm
3. O=C(/C=C/c1ccc(O)cc1)Nc1nc2ccccc2s1 [BZTcin2, (E)-N-(benzo[d]thiazol-2-yl)-3-(4-hydroxyphenyl)acrylamide]  377 nm
4. COc1ccc(/C=C/C(=O)Nc2nc3ccccc3s2)cc1O [BZTcin5, (E)-N-(benzo[d]thiazol-2-yl)-3-(3-hydroxy-4-methoxyphenyl)acrylamide]  377 nm

Tested on: not listed separately
Assay: FRAP (Ferric Reducing Antioxidant Power) assay
Settings: Trolox standard, 37 °C 10 min, 593 nm; mean ± SEM
Text: The FRAP (Ferric Reducing Antioxidant Power) test allows the measurement of the ability of antioxidants to reduce ferric ion to ferrous. This method represents one of the simplest, quickest and least expensive methods for the determination of reducing properties on oxidized species in vitro.
The FRAP test (Ferric Reducing Antioxidant Power) is based on a colorimetric reaction and evaluates the ability of a sample of reducing ferric ions to ferrous ion while complexed with TPTZ (2,4,6-trispyridil-s-triazine). The FRAP solution was prepared from 0.1 M acetate buffer (pH 3.6), 10 mmol/L of TPTZ in 40 mM HCl, and 20 mM solution of FeCl3, with a 10:1:1 ratio, as described. Then, 1.9 mL of this solution was incubated with 0.1 mL of the sample solution at 37 °C for 10 min. The absorbance was read with a UV-Vis spectrophotometer at a 593 nm wavelength, relative to the maximum peak of absorbance of Fe^2+-TPTZ complex. Trolox® was used as a standard and the results are expressed as µmolTE/g.

In order of falling FRAP:
1. COc1ccc(/C=C/C(=O)Nc2nc3ccccc3s2)cc1O [BZTcin5, (E)-N-(benzo[d]thiazol-2-yl)-3-(3-hydroxy-4-methoxyphenyl)acrylamide]  2043.33 ± 12.03 µmolTE/g
2. O=C(N/N=C/c1ccc(O)cc1)c1nc2ccccc2s1 [BZTidr2, (E)-N′-(4-hydroxybenzylidene)benzo[d]thiazole-2-carbohydrazide]  1160.24 ± 17.34 µmolTE/g
3. O=C(/C=C/c1ccc(O)cc1)Nc1nc2ccccc2s1 [BZTcin2, (E)-N-(benzo[d]thiazol-2-yl)-3-(4-hydroxyphenyl)acrylamide]  43.73 ± 2.83 µmolTE/g

In the case of `O=C(/C=C/c1ccc(O)c(O)c1)Nc1nc2ccccc2s1` [BZTcin4, (E)-N-(benzo[d]thiazol-2-yl)-3-(3,4-dihydroxyphenyl)acrylamide], the FRAP is reported as 4583.10 µmolTE/g and 4583.10 ± 22.68 µmolTE/g.

From publication PMC9822352, “Design, Synthesis and Evaluation of New Multifunctional Benzothiazoles as Photoprotective, Antioxidant and Antiproliferative Agents” (Molecules, 2022)
